Laboratory results: EP0091185A2, “Berbane derivatives” (CHINOIN Gyogyszer és Vegyészeti Termékek Gyára RT., priority 1982, dated 1983)
Values belong to the compound of their own block, whether it stands above or below them.

Tests used:
CFLP strain female mice = conditions: mouse, in vivo
Protocol: These tests were carried out on CFLP strain female mice weighing 20-25 g by the rotating rod method [A. Kovach: Testing methods of experimental medical sciences - A kisérletes orvostudomany vizsgáló m6dszerei - Akad6mia kiad6, Budapest, VI. 232-233, 1962)].

CFY strain male rats = assay: Systolic blood pressure of non-anaesthetized rats, measured indirectly on the tail with a cuff; format: in vivo; conditions: for Blood pressure change related to the starting (control) value, 3rd hour / Blood pressure change related to the starting (control) value, 6th hour / Blood pressure change related to the starting (control) value, 12th hour / Blood pressure change related to the starting (control) value, 18th hour / Blood pressure change related to the starting (control) value, 24th hour / Blood pressure change related to the starting (control) value, 48th hour: n 5; for dose achieving hypotension of approximately the same intensity and duration: comparison of reserpine and the racemic compound, i.p.
Protocol: The tests were carried. out on CFY strain male rats weighing 250-300 g. The systolic blood pressure was measured indirectly on the tails of the animals pressed down with the aid. of a cuff. […] The systolic blood pressure was determined by observing simultaneously the manometer and the out-signal.

[1] = system: male rats weighing 300 and having hypertension; assay: Systolic blood pressure decrease by the optically active enantiomers in hypertensive rats; format: in vivo; conditions: intraperitoneal 20 mg/kg, sixth hour following administration (maximum of the effect)
Protocol: The tests were carried. out on CFY strain male rats weighing 250-300 g. The systolic blood pressure was measured indirectly on the tails of the animals pressed down with the aid. of a cuff. When the pressure of the pressing cuff attached to a mercury manometer decreased just under the systolic pressure, the sensing head of the measuring apparatus (VP 101 microphone adapted for this purpose and placed on the tails of the rats) signalled the appearence of arterial pulsation both in acustical and visual way (oscilloscope). The systolic blood pressure was determined by observing simultaneously the manometer and the out-signal. When administering the raoemic compound intraperitoneally in doses of 10 and. […] The characteristics of the hypotensive effect of reserpine used as control are substantially the same as those of the racemic compound; hypotension of approximately the same intensity and duration can be achieved by administering 2,5 mg/kg of reserpine and 20 mg/kg of the racemic compound, respectively.
The optically active enantiomers were administered in intraperitoneal doses of 20 mg/kg to male rats weighing 300 and having hypertension. […]

[2] = 10 mg/kg i.p., n 5, control 115 ± 2
[3] = 20 mg/kg i.p., n 5, control 116 ± 2
[4] = intraperitoneally 10 and 20 mg/kg
[5] = 2,5 mg/kg i.p., n 5, control 117 ± 2
[6] = 5,0 mg/kg i.p., n 5, control 118 ± 2

- Time for which mice stayed on the rotating rod (average, n = 10) (CFLP strain female mice): 102 ± 12,0
Compound: COC(=O)[C@H]1C(=O)[C@@H](OC(=O)c2cc(OC)c(OC)c(OC)c2)C[C@@H]2CN3CCc4cc5c(cc4[C@H]3C[C@@H]21)OCO5 (racemic) [SC-T 40, Racemic methyl-7,8-methylened.ioxy-15-(3,4,5--trimethoxy-benzoyloxy)-14-oxo-epiallo--berbane-13-carboxylate]
- effect on coordination (CFLP strain female mice): did not exhibit any effect on coordination
- Blood pressure change related to the starting (control) value, 3rd hour (CFY strain male rats; 10 mg/kg i.p.): -4,23%
- Blood pressure (Hgmm; x̄ ± S.E.) 3rd hour (CFY strain male rats; [2]): 110 ± 2 Hgmm
- Blood pressure change related to the starting (control) value, 6th hour (CFY strain male rats; 10 mg/kg i.p.): -13,88%
- Blood pressure (Hgmm; x̄ ± S.E.) 6th hour (CFY strain male rats; [2]): 99 ± 3 Hgmm
- Blood pressure change related to the starting (control) value, 12th hour (CFY strain male rats; 10 mg/kg i.p.): -12,14%
- Blood pressure (Hgmm; x̄ ± S.E.) 12th hour (CFY strain male rats; [2]): 101 ± 2 Hgmm
- Blood pressure change related to the starting (control) value, 18th hour (CFY strain male rats; 10 mg/kg i.p.): -9,53%
- Blood pressure (Hgmm; x̄ ± S.E.) 18th hour (CFY strain male rats; [2]): 104 ± 2 Hgmm
- Blood pressure change related to the starting (control) value, 24th hour (CFY strain male rats; 10 mg/kg i.p.): -9,64%
- Blood pressure (Hgmm; x̄ ± S.E.) 24th hour (CFY strain male rats; [2]): 104 ± 4 Hgmm
- Blood pressure change related to the starting (control) value, 48th hour (CFY strain male rats; 10 mg/kg i.p.): -9,53%
- Blood pressure (Hgmm; x̄ ± S.E.) 48th hour (CFY strain male rats; [2]): 104 ± 2 Hgmm
- Blood pressure change related to the starting (control) value, 3rd hour (CFY strain male rats; 20 mg/kg i.p.): -7,98%
- Blood pressure (Hgmm; x̄ ± S.E.) 3rd hour (CFY strain male rats; [3]): 107 ± 2 Hgmm
- Blood pressure change related to the starting (control) value, 6th hour (CFY strain male rats; 20 mg/kg i.p.): -19,53%
- Blood pressure (Hgmm; x̄ ± S.E.) 6th hour (CFY strain male rats; [3]): 93 ± 6 Hgmm
- Blood pressure change related to the starting (control) value, 12th hour (CFY strain male rats; 20 mg/kg i.p.): -17,11%
- Blood pressure (Hgmm; x̄ ± S.E.) 12th hour (CFY strain male rats; [3]): 96 ± 2 Hgmm
- Blood pressure change related to the starting (control) value, 18th hour (CFY strain male rats; 20 mg/kg i.p.): -12,76%
- Blood pressure (Hgmm; x̄ ± S.E.) 18th hour (CFY strain male rats; [3]): 101 ± 3 Hgmm
- Blood pressure change related to the starting (control) value, 24th hour (CFY strain male rats; 20 mg/kg i.p.): -9,42%
- Blood pressure (Hgmm; x̄ ± S.E.) 24th hour (CFY strain male rats; [3]): 105 ± 2 Hgmm
- Blood pressure change related to the starting (control) value, 48th hour (CFY strain male rats; 20 mg/kg i.p.): -4,23%
- Blood pressure (Hgmm; x̄ ± S.E.) 48th hour (CFY strain male rats; [3]): 111 ± 1 Hgmm
- dose achieving hypotension of approximately the same intensity and duration (CFY strain male rats): 20 mg/kg
- duration of the hypotensive effect (CFY strain male rats; [4]): still detected in the 48th hour
- time at which the hypotensive effect reached its maximum (CFY strain male rats; [4]): sixth hour
- hypotensive effect (CFY strain male rats; intraperitoneally 10 and 20 mg/kg, 3-6 hours after the administration): significant hypotensive effect

Compound: COC(=O)[C@H]1[C@H]2C[C@@H]3c4[nH]c5cc(OC)ccc5c4CCN3C[C@H]2C[C@@H](OC(=O)c2cc(OC)c(OC)c(OC)c2)[C@@H]1OC [RESERPINE, reserpine, reference compound]
- Time for which mice stayed on the rotating rod (average, n = 10) (CFLP strain female mice): 9 ± 3,3
- effect on coordination (CFLP strain female mice): roduced coordination to a very significatn extent
- Blood pressure change related to the starting (control) value, 3rd hour (CFY strain male rats; 2,5 mg/kg i.p.): -11,11%
- Blood pressure (Hgmm; x̄ ± S.E.) 3rd hour (CFY strain male rats; [5]): 104 ± 2 Hgmm
- Blood pressure change related to the starting (control) value, 6th hour (CFY strain male rats; 2,5 mg/kg i.p.): -18,8%
- Blood pressure (Hgmm; x̄ ± S.E.) 6th hour (CFY strain male rats; [5]): 95 ± 2 Hgmm
- Blood pressure change related to the starting (control) value, 12th hour (CFY strain male rats; 2,5 mg/kg i.p.): -9,4%
- Blood pressure (Hgmm; x̄ ± S.E.) 12th hour (CFY strain male rats; [5]): 106 ± 2 Hgmm
- Blood pressure change related to the starting (control) value, 18th hour (CFY strain male rats; 2,5 mg/kg i.p.): -12,82%
- Blood pressure (Hgmm; x̄ ± S.E.) 18th hour (CFY strain male rats; [5]): 102 ± 1 Hgmm
- Blood pressure change related to the starting (control) value, 24th hour (CFY strain male rats; 2,5 mg/kg i.p.): -10,26%
- Blood pressure (Hgmm; x̄ ± S.E.) 24th hour (CFY strain male rats; [5]): 105 ± 3 Hgmm
- Blood pressure change related to the starting (control) value, 48th hour (CFY strain male rats; 2,5 mg/kg i.p.): -6,48%
- Blood pressure (Hgmm; x̄ ± S.E.) 48th hour (CFY strain male rats; [5]): 109 ± 2 Hgmm
- Blood pressure change related to the starting (control) value, 3rd hour (CFY strain male rats; 5,0 mg/kg i.p.): -15,25%
- Blood pressure (Hgmm; x̄ ± S.E.) 3rd hour (CFY strain male rats; [6]): 100 ± 5 Hgmm
- Blood pressure change related to the starting (control) value, 6th hour (CFY strain male rats; 5,0 mg/kg i.p.): -19,49%
- Blood pressure (Hgmm; x̄ ± S.E.) 6th hour (CFY strain male rats; [6]): 95 ± 7 Hgmm
- Blood pressure change related to the starting (control) value, 12th hour (CFY strain male rats; 5,0 mg/kg i.p.): -13,56%
- Blood pressure (Hgmm; x̄ ± S.E.) 12th hour (CFY strain male rats; [6]): 102 ± 1 Hgmm
- Blood pressure change related to the starting (control) value, 18th hour (CFY strain male rats; 5,0 mg/kg i.p.): -8,47%
- Blood pressure (Hgmm; x̄ ± S.E.) 18th hour (CFY strain male rats; [6]): 108 ± 2 Hgmm
- Blood pressure change related to the starting (control) value, 24th hour (CFY strain male rats; 5,0 mg/kg i.p.): -10,17%
- Blood pressure (Hgmm; x̄ ± S.E.) 24th hour (CFY strain male rats; [6]): 106 ± 3 Hgmm
- Blood pressure change related to the starting (control) value, 48th hour (CFY strain male rats; 5,0 mg/kg i.p.): -5.93%
- Blood pressure (Hgmm; x̄ ± S.E.) 48th hour (CFY strain male rats; [6]): 111 ± 2 Hgmm
- dose achieving hypotension of approximately the same intensity and duration (CFY strain male rats): 2,5 mg/kg

Compound: (+)-Methyl-7,8-methylenedioxy-15-(3,4,5--trimethoxy-benzoyloxy)-l4-oxo-epiallo--berbane-13-carboxylate [[(+), I]]
- blood-pressure decrease (average, n = 6) [1]: 15,6 Hgmm

Compound: (-)-Methyl-7,8-methylenedioxy-15-(3,4,5--trimethoxy-benzoyloxy)-14-oxo-epiallo--berbane-13-carboxylate [[(-), I]]
- blood-pressure decrease (average, n = 6) [1]: 14,8 Hgmm
